Experimental data taken from patent US10188653B2, “Diacylglycerol acyltransferase 2 inhibitors” (Pfizer Inc., priority 2014, dated 2019).

Biological target: hDGAT2 (Homo sapiens (Human), UniProt Q96PD7)
Experiment: In vitro DGAT2 assay, determination of IC50 values for DGAT2 inhibitors
Format: biochemical
Conditions: hDGAT2 membrane fraction; [1-14C]decanoyl-CoA and 1,2-didecanoyl-sn-glycerol substrates; geometric mean IC50; read-out: IC50 values of Examples for inhibition of DGAT2
Method: Recombinant baculovirus for the FLAG-tagged hDGAT2 was generated in SF9 insect cells using Bac-to-Bac baculovirus expression system (Invitrogen) according to the manufacturer's protocol. For the expression of hDGAT2, SF9 cells (20 L) grown in Sf900II media were infected with hDGAT2 baculovirus at a multiplicity of infection of 1 in a Wave Bioreactor System 20/50P wave bag (GE Healthcare). After 40 hours of infection, the cells were then harvested by centrifugation at 5,000×g. The cell pellets were washed by resuspending in phosphate buffered saline (PBS) and collected by centrifugation at 5,000×g. The cell paste was flash frozen in liquid N2 and stored at −80° C. until needed. All operations below were at 4° C. unless otherwise noted. […]
For determination of IC50 values, the reactions were carried out in 384-well white Polyplates (Perkin Elmer) in a total volume of 20 μL. […] Plates were centrifuged at 2,000×g for 1 min in an Allegra 6R Centrifuge (Beckman Coulter) and then were sealed again with fresh covers before reading in a 1450 Microbeta Wallac Trilux Scintillation Counter (Perkin Elmer). DGAT2 activity was measured by quantifying the generated product [^14C]tridecanoylglycerol in the upper organic phase. […]

Chain of hDGAT2 (Q96PD7 whole entry): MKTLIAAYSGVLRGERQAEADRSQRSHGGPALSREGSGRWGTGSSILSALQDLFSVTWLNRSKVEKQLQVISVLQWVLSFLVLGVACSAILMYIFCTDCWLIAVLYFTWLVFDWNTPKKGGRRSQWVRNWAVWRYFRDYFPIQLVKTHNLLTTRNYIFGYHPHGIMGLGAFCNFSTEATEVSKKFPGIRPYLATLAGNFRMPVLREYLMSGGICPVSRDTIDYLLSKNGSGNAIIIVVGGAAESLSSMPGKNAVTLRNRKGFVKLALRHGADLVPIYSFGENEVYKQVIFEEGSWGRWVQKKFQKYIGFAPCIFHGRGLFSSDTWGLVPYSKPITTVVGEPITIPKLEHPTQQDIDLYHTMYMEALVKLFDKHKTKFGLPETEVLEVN

## (R)-2-(3-(2-ethoxy- phenoxy)piperidin-1-yl)- N-(1-hydroxy-2-methyl- propan-2-yl)pyrimidine- 5-carboxamide [Example 19.21]
  IC50: 7.9 nM
